Measurements taken from patent US6124322A, “Intravenous form of thalidomide for treating immunological diseases” (Gruenenthal GmbH, priority 1997, dated 2000).
≈ marks a conversion by molar mass, not a printed value.

Key:
[1] = hydrolysis in aqueous solution; assay type: physicochemical; details: aqueous solutions, pH not restricted
Excerpt: The enantiomers of thalidomide have a solubility in water which is higher by a factor of 6 than that of the racemate.

[2] = tested on: cutaneous lupus erythematosus, pyoderma gangrenosum, orogenital ulcers with morbus Behcet, ulcerations in HIV-infected patients; details: cited from earlier work
[3] = tested on: aphthous stomatitis; details: treatment of aphthous stomatitis; cited from earlier work
[4] = Arch. Pharm. 321, 371 (1988); cited from earlier work

For `O=C1CCC(N2C(=O)c3ccccc3C2=O)C(=O)N1` (racemic) [thalidomide], the “hydrolysis in aqueous solution” value [1] is listed as “tendency of thalidomide to undergo spontaneous hydrolysis”, the “efficacy without general immunosuppression” value [2] is listed as “good efficacy without resulting in a general immunosuppression” and the “efficacy in aphthous stomatitis versus classical immunosuppressants” value [3] is listed as “superior to classical immunosuppressants”. For the same compound, the solubility in water [4] was 12 µg/mL (≈ 46.5 µM).
